In publication PMC9299836 (eLife, 2022):
“And” between values parts separate entries of the source, which are not always exact repeats. Equal entries are not always repeated.

What was measured:
[1] = target: T1, mGluR2 (Mus musculus, UniProt Q14BI2); test: Live-cell FRET, SNAP-m2 (VFT domain) inter-subunit sensor in HEK293T cells; conditions: for Mean normalized FRET response, SNAP-m2 NAM DRC: glutamate + 10μM modulator, maximal response normalized to 1mM glutamate;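 on all read-outs here: apparent FRET efficiency from whole-membrane ROIs of single cells, corrected for donor bleed-through and background, ΔFRET as treatment minus pretreatment signal, recorded at room temperature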
[2] = target: mGluR2 (Mus musculus, UniProt Q14BI2, INS715F); test: Live-cell FRET, azi-ECL2 (7TM domain, extracellular loop 2) sensor in HEK293T cells; conditions: for Mean normalized azi-ECL2 FRET response: glutamate + 10μM modulator, maximal response normalized to 1mM glutamate;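 on all read-outs here: Cy3/Cy5 click-labeled sensor, whole-membrane ROIs per cell, apparent FRET after bleed-through correction, ΔFRET as treatment minus pre-treatment signal, at room temperature, at least three biological replicates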
[3] = target: mGluR2 (Mus musculus, UniProt Q14BI2, A548F); test: Live-cell FRET, azi-CRD (cysteine-rich domain) sensor in HEK293T cells; conditions: for azi-CRD normalized FRET response, Mean / azi-CRD normalized FRET response, individual cell: Glutamate + 10μM modulator (NAM); for azi-CRD normalized FRET response, Mean: maximal response normalized to 1mM glutamate; for azi-CRD normalized FRET response, individual cell: single-cell replicate
[4] = target: T1, mGluR2; test: Functional calcium imaging, SNAP-mGluR2 (no FLAG-tag) with chimeric G protein Gqo5 in HEK293T cells; type: cell-based; parameters: Full length mGluR2 construct with an amber codon (TAG) mutation of amino acid A548 (azi-CRD) or N-terminal SNAP-tag (SNAP-mGluR2); host or cells: HEK293T; conditions: for Intracellular Ca2+ Response (normalized to 1mM glutamate), Mean: Glutamate + 90nM Ro 64-5229
[5] = 10μM Ro 64-5229, ([1 mM glutamate + modulator] - [1 mM glutamate]) × 100

mGluR2 (Mus musculus, UniProt Q14BI2, A548F), sequence (Q14BI2 19-872 A548F): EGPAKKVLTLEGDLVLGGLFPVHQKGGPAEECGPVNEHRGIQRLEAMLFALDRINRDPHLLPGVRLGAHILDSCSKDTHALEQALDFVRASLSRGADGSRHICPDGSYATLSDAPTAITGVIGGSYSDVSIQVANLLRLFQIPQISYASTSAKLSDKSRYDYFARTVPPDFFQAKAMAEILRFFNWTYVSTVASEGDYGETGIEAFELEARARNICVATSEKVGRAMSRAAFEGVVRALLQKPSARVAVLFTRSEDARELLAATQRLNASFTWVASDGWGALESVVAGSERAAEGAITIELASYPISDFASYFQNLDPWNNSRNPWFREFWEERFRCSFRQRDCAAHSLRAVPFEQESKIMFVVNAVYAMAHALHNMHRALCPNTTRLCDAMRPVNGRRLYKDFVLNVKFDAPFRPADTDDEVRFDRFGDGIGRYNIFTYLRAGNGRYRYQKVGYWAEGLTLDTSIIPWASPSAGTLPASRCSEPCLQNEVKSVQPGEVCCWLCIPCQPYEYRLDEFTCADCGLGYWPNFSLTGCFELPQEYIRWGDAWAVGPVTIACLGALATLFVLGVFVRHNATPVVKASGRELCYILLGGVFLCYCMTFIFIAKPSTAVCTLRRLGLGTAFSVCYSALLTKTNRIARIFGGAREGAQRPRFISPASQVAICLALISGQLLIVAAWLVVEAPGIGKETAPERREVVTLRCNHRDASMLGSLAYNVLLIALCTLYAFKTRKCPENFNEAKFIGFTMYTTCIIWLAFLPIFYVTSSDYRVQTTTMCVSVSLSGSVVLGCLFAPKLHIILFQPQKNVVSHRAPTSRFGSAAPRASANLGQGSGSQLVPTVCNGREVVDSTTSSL
mGluR2 (Mus musculus, UniProt Q14BI2, INS715F), sequence (Q14BI2 with tags, fused parts or gaps INS715F): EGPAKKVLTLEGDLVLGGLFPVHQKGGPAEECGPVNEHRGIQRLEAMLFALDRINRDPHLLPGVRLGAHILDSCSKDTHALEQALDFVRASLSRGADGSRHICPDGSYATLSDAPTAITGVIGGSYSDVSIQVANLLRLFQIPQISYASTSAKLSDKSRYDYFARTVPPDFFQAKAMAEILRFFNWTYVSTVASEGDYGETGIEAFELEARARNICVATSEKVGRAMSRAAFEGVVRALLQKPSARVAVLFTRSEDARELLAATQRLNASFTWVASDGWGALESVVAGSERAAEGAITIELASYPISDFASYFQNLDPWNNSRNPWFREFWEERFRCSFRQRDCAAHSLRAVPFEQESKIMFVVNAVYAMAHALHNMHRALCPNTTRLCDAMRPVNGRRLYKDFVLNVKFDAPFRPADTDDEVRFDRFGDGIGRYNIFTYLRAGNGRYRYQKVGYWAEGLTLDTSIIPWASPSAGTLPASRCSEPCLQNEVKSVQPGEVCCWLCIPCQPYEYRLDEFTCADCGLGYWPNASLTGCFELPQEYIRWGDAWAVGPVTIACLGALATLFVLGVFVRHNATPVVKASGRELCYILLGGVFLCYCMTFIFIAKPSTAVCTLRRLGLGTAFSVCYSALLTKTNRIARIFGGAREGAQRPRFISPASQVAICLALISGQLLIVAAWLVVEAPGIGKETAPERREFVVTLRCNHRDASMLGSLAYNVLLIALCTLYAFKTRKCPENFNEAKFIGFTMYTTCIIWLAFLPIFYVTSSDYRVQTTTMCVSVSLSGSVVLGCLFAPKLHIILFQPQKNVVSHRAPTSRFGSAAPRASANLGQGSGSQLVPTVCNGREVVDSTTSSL
T1 sequence (Q14BI2 19-872): as the sequence (Q14BI2 19-872 A548F) above, with F530A counted along it

Clc1cccc(Cl)c1/C(=C/n1cncn1)OC1CCCCCC1 [Ro 64–5229]
SNAP-m2 - ΔEfficacy, Mean ΔEfficacy [1, 5]: -12.5077
Mean max response (normalized max ΔFRET) ([1]; SNAP-m2, 1 mM glutamate + 10 μM modulator, normalized to 1 mM glutamate): 0.87
Mean ΔPotency ([1]; SNAP-m2, 10μM modulator, (([modulator + glutamate]EC50 – [glutamate] EC50)/[glutamate] EC50) × 100): 64.9494
Mean ΔEfficacy ([1]; SNAP-m2, 10μM modulator, ([1 mM glutamate + modulator] - [1 mM glutamate]) × 100): -12.5077
Hill slope of glutamate titration ([1]; SNAP-m2 sensor, + 10 μM modulator): –1.52
Mean normalized FRET response, SNAP-m2 NAM DRC ([1]; log[Glutamate] (M) -3): -0.8749
Mean normalized FRET response, SNAP-m2 NAM DRC ([1]; log[Glutamate] (M) -4.1549): -0.7502
Mean normalized FRET response, SNAP-m2 NAM DRC ([1]; log[Glutamate] (M) -4.52288): -0.5932
Mean normalized FRET response, SNAP-m2 NAM DRC ([1]; log[Glutamate] (M) -5): -0.2293
Mean normalized FRET response, SNAP-m2 NAM DRC ([1]; log[Glutamate] (M) -5.39794): -0.07065
Mean normalized FRET response, SNAP-m2 NAM DRC ([1]; log[Glutamate] (M) -5.82391): -0.0217
Mean normalized FRET response, SNAP-m2 NAM DRC ([1]; log[Glutamate] (M) -6.52288): 0
Mean normalized FRET response, SNAP-m2 NAM DRC ([1]; log[Glutamate] (M) -7): 0
Mean normalized FRET response, SNAP-m2 NAM DRC ([1]; log[Glutamate] (M) -7.69897): 0
Mean normalized FRET response, SNAP-m2 NAM DRC ([1]; log[Glutamate] (M) -4.69897): -0.4605
azi-ECL2 - ΔEfficacy, Mean ΔEfficacy [2, 5]: -16.382
Mean ΔPotency ([2]; 10μM modulator, (([modulator + glutamate]EC50 – [glutamate] EC50)/[glutamate] EC50) × 100): 238.581
ΔPotency, individual cell responses ([2]; 10μM modulator, single cells, (([modulator + glutamate]EC50 – [glutamate] EC50)/[glutamate] EC50) × 100): 105.749 and 188.087 and 277.044 and 382.546 and 239.476
ΔEfficacy, individual cell responses ([2]; 10μM modulator, single cells, ([1 mM glutamate + modulator] - [1 mM glutamate]) × 100): -3.67 and -2.778 and -15 and -26.6667 and -29.3756 and -15.3219 and -1.127 and -37.1174
Mean max response (normalized max ΔFRET) ([2]; azi-ECL2, 1 mM glutamate + 10 μM modulator, normalized to 1 mM glutamate): 0.84
Hill slope of glutamate titration ([2]; azi-ECL2 sensor, + 10 μM modulator): 1.07
Live-cell FRET max response normalized to 1mM glutamate ([2]; azi-ECL2 sensor, Glutamate + 10μM Ro 64-5229, individual values (N=8)): 0.7062 and 0.8468 and 0.9887 and 0.6288 and 0.9633 and 0.9722 and 0.85 and 0.7333
Mean normalized azi-ECL2 FRET response ([2]; log[Glutamate] (M) -3): 0.8362
Mean normalized azi-ECL2 FRET response ([2]; log[Glutamate] (M) -4.1549): 0.6516
Mean normalized azi-ECL2 FRET response ([2]; log[Glutamate] (M) -4.52288): 0.5392
Mean normalized azi-ECL2 FRET response ([2]; log[Glutamate] (M) -5): 0.3248
Mean normalized azi-ECL2 FRET response ([2]; log[Glutamate] (M) -5.39794): 0.1335
Mean normalized azi-ECL2 FRET response ([2]; log[Glutamate] (M) -5.82391): 0.04706
Mean normalized azi-ECL2 FRET response ([2]; log[Glutamate] (M) -6.52288): 0
Mean normalized azi-ECL2 FRET response ([2]; log[Glutamate] (M) -7): 0
Mean normalized azi-ECL2 FRET response ([2]; log[Glutamate] (M) -7.69897): 0
Mean normalized azi-ECL2 FRET response ([2]; log[Glutamate] (M) -4.69897): 0.5381
azi-CRD - ΔEfficacy, Mean ΔEfficacy [3, 5]: -41.4006
azi-CRD - ΔEfficacy, individual cell responses ([3]; 10μM Ro 64-5229, single cells): -28.0702 and -27.0053 and -21.7759 and -17.8571 and -54.2848 and -56.1085 and -49.8998 and -39.7625 and -52.6646 and -45.8685 and -32.6644 and -42.4305 and -51.9931 and -35.5526 and -41.2702 and -37.27 and -50.0412 and -60.6915
azi-CRD normalized FRET response, Mean ([3]; log[Glutamate] (M) -3): 0.586
azi-CRD normalized FRET response, individual cell ([3]; log[Glutamate] (M) -3): 0.586
azi-CRD normalized FRET response, Mean ([3]; log[Glutamate] (M) -4.1549): 0.5093
azi-CRD normalized FRET response, individual cell ([3]; log[Glutamate] (M) -4.1549): 0.5346 and 0.4622 and 0.5203 and 0.5084 and 0.5826 and 0.5517 and 0.4974 and 0.5062 and 0.5143 and 0.4926 and 0.4963 and 0.4643 and 0.4905
azi-CRD normalized FRET response, Mean ([3]; log[Glutamate] (M) -4.52288): 0.3977
azi-CRD normalized FRET response, individual cell ([3]; log[Glutamate] (M) -4.52288): 0.3335 and 0.3611 and 0.3991 and 0.4165 and 0.5072 and 0.4352 and 0.378 and 0.3755 and 0.3785 and 0.4157 and 0.3821 and 0.3693 and 0.4189
azi-CRD normalized FRET response, Mean ([3]; log[Glutamate] (M) -5): 0.2248
azi-CRD normalized FRET response, individual cell ([3]; log[Glutamate] (M) -5): 0.1496 and 0.3033 and 0.2652 and 0.2455 and 0.317 and 0.2125 and 0.1682 and 0.183 and 0.1871 and 0.1831 and 0.172 and 0.2951 and 0.2409
azi-CRD normalized FRET response, Mean ([3]; log[Glutamate] (M) -5.39794): 0.1255
azi-CRD normalized FRET response, individual cell ([3]; log[Glutamate] (M) -5.39794): 0.1184 and 0.1898 and 0.1288 and 0.1204 and 0.1285 and 0.1251 and 0.1085 and 0.1183 and 0.1305 and 0.09889 and 0.1192 and 0.1155 and 0.1302
azi-CRD normalized FRET response, Mean ([3]; log[Glutamate] (M) -5.82391): 0.06192
azi-CRD normalized FRET response, individual cell ([3]; log[Glutamate] (M) -5.82391): 0.04987 and 0.1052 and 0.0682 and 0.05385 and 0.04969 and 0.05654 and 0.05788 and 0.05365 and 0.05774 and 0.05311 and 0.05405 and 0.04746 and 0.09767
azi-CRD normalized FRET response, Mean ([3]; log[Glutamate] (M) -6.52288): 0.03074
azi-CRD normalized FRET response, individual cell ([3]; log[Glutamate] (M) -6.52288): 0.03117 and 0.03301 and 0.02778 and 0.02217 and 0.02741 and 0.0634 and 0.03617 and 0.02751 and 0.02353 and 0.01178 and 0.01113 and 0.04333 and 0.04124
azi-CRD normalized FRET response, Mean ([3]; log[Glutamate] (M) -7): 0
azi-CRD normalized FRET response, individual cell ([3]; log[Glutamate] (M) -7): 0
Hill slope of glutamate titration ([3]; azi-CRD sensor, + 10 μM modulator): 1.05
Live-cell FRET max response normalized to 1mM glutamate ([3]; azi-CRD sensor, Glutamate + 10μM Ro 64-5229, individual values (N=18)): 0.4572 and 0.4389 and 0.501 and 0.6024 and 0.4733 and 0.5413 and 0.6734 and 0.5757 and 0.4801 and 0.6445 and 0.5873 and 0.6273 and 0.4996 and 0.3931 and 0.7193 and 0.7299 and 0.7822 and 0.8214
Mean max response (normalized max ΔFRET) ([3]; azi-CRD, 1 mM glutamate + 10 μM modulator, normalized to 1 mM glutamate): 0.59
Mean ΔPotency ([3]; azi-CRD, 10μM modulator, (([modulator + glutamate]EC50 – [glutamate] EC50)/[glutamate] EC50) × 100): 46.1673
ΔPotency, individual cell ([3]; azi-CRD, 10μM modulator, calculated from individual cell responses): 111.788 and 54.4953 and 84.4604 and 80.2661 and 72.5435 and 46.8592 and 26.2598 and 27.1246 and 2.91 and 18.4766 and 20.2062 and -17.7582
Effect on receptor activation (calcium imaging) in the presence of glutamate ([4]; 10 μM NAM): block receptor activation
Intracellular Ca2+ Response, % 1mM Glutamate ([4]; 1mM Glutamate + 90nM Ro 64-5229, individual experiments): 79.692% and 78.096% and 66.28%
Mean ΔEfficacy of glutamate ([4]; Ca2+ response, 1 mM glutamate + 90 nM modulator, ([1 mM glutamate + modulator] - [1 mM glutamate]) × 100): -25.3109
ΔEfficacy of glutamate, individual experiments ([4]; Ca2+ response, 1 mM glutamate + 90 nM modulator, single replicate): -21.9043 and -33.7198 and -20.3084
Mean ΔPotency of glutamate ([4]; Ca2+ response, glutamate + 90 nM modulator, (([modulator + glutamate]EC50 – [glutamate]EC50)/[glutamate]EC50) × 100): 160.286
ΔPotency of glutamate, individual experiments ([4]; Ca2+ response, glutamate + 90 nM modulator, single replicate): 46.8661 and 141.491 and 292.502
Intracellular Ca2+ Response (normalized to 1mM glutamate), Mean ([4]; log[Glutamate] (M) -3): 0.7469
Intracellular Ca2+ Response (normalized to 1mM glutamate), Mean ([4]; log[Glutamate] (M) -3.60206): 0.7222
Intracellular Ca2+ Response (normalized to 1mM glutamate), Mean ([4]; log[Glutamate] (M) -4.1549): 0.5737
Intracellular Ca2+ Response (normalized to 1mM glutamate), Mean ([4]; log[Glutamate] (M) -4.52288): 0.2233
Intracellular Ca2+ Response (normalized to 1mM glutamate), Mean ([4]; log[Glutamate] (M) -5): 0.1471
Intracellular Ca2+ Response (normalized to 1mM glutamate), Mean ([4]; log[Glutamate] (M) -5.39794): 0
Intracellular Ca2+ Response (normalized to 1mM glutamate), Mean ([4]; log[Glutamate] (M) -5.82391): 0
Intracellular Ca2+ Response (normalized to 1mM glutamate), Mean ([4]; log[Glutamate] (M) -6.52288): 0
Intracellular Ca2+ Response (normalized to 1mM glutamate), Mean ([4]; log[Glutamate] (M) -7): 0
